How the values were obtained:
[1] = target: Serine/threonine-protein kinase N1 (Homo sapiens, UniProt Q16512); test: Selectivity interaction (KinomeScan (DiscoverX)) EUB0001049a PKN1; conditions: at 1 µM
[2] = target: T1, Phosphatidylinositol 5-phosphate 4-kinase type-2 gamma (Homo sapiens) (UniProt Q8TBX8); test: Selectivity interaction (KinomeScan (DiscoverX)) EUB0001049a PIP4K2C; conditions: at 1 µM
T1 sequence (whole entry): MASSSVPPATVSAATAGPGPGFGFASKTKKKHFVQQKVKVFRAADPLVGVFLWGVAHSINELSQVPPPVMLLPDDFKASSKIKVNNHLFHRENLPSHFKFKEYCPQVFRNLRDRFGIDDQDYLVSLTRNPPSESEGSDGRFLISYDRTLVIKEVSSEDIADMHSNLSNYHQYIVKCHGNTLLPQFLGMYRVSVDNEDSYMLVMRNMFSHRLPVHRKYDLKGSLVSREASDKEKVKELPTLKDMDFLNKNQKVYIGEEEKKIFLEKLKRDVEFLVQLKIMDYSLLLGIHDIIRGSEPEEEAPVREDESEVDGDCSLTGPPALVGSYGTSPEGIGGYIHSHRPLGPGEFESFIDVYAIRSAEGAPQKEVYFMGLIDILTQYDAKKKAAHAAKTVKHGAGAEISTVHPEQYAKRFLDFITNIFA

[3] = target: Angiopoietin-1 receptor (Homo sapiens) (UniProt Q02763); test: Selectivity interaction (Kinase panel (literature)) EUB0001199aCl TEK; conditions: at 1 µM
[4] = target: LIM domain kinase 2 (Homo sapiens) (UniProt P53671); test: Selectivity interaction (KinomeScan (DiscoverX)) EUB0000229b LIMK2; conditions: at 10 µM
[5] = target: 5-hydroxytryptamine receptor 1D (Homo sapiens) (UniProt P28221); test: Selectivity interaction (GPCR panel (PDSP screen)) EUB0001079a HTR1D; conditions: at 10 µM
5-hydroxytryptamine receptor 1D (Homo sapiens), sequence (P28221 whole entry): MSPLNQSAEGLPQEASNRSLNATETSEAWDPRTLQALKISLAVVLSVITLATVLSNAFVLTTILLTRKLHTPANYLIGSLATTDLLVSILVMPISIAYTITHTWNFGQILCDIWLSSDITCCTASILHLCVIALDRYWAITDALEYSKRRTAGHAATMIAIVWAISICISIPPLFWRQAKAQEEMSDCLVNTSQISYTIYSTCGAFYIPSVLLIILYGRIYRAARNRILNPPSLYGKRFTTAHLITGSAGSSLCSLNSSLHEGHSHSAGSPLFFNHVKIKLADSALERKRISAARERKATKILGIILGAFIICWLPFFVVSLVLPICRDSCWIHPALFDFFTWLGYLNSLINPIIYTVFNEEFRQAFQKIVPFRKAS

[6] = target: Myosin light chain kinase family member 4 (Homo sapiens, UniProt Q86YV6); test: Selectivity interaction (Enzymatic assay) EUB0001550a MYLK4
[7] = target: Ribosomal protein S6 kinase alpha-1 (Homo sapiens, UniProt Q15418); test: Selectivity interaction (KinomeScan (DiscoverX)) EUB0000595a RPS6KA1; conditions: at 10 µM
[8] = target: Serine/threonine-protein kinase B-raf (Homo sapiens) (UniProt P15056); test: Selectivity interaction (KinomeScan (DiscoverX)) EUB0000092b BRAF; conditions: at 10 µM
[9] = target: Mast/stem cell growth factor receptor Kit (Homo sapiens, UniProt P10721); test: Selectivity interaction (Ambit KINOMEscan and KiNATiv profiling in Jurkat cells) EUB0000090b KIT; assay type: cell-based; conditions: at 1 µM
Mast/stem cell growth factor receptor Kit, sequence (P10721 whole entry, canonical isoform): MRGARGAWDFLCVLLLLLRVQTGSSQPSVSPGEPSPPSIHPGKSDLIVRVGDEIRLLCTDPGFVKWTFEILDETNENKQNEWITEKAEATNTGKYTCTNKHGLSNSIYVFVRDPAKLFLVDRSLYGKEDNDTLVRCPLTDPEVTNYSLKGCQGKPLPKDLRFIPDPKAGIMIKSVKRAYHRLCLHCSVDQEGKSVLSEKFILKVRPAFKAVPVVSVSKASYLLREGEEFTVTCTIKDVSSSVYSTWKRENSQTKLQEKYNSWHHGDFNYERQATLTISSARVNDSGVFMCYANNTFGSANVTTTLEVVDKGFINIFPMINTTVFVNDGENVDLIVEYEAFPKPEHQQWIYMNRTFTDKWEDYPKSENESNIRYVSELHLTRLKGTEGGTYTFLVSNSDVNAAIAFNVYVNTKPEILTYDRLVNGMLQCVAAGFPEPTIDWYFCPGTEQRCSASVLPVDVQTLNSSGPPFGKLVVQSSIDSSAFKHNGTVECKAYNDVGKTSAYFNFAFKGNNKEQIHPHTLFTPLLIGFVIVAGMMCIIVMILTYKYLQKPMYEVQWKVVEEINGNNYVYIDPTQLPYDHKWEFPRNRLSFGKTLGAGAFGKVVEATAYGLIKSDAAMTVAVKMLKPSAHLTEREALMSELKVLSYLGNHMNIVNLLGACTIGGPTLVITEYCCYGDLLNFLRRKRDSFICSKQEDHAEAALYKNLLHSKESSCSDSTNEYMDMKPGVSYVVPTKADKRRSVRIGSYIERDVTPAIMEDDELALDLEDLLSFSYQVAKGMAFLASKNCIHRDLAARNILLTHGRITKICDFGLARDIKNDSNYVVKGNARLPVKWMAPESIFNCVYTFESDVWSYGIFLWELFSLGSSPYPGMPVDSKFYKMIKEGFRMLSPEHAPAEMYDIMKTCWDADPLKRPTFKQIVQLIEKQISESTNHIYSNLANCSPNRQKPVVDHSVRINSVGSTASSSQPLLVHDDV

[10] = target: Phosphatidylinositol 4,5-bisphosphate 3-kinase catalytic subunit beta isoform (Homo sapiens) (UniProt P42338); test: Selectivity interaction (Ambit KINOMEscan and KiNATiv profiling in Jurkat cells) EUB0000090b PIK3CB; assay type: cell-based; conditions: at 1 µM
[11] = target: T2, Histone-lysine N-methyltransferase SMYD3 (Homo sapiens) (UniProt Q9H7B4); test: Selectivity interaction (Methyltransferase screen (Scintillation proximity assays)) EUB0000255b SMYD3
T2 sequence (whole entry): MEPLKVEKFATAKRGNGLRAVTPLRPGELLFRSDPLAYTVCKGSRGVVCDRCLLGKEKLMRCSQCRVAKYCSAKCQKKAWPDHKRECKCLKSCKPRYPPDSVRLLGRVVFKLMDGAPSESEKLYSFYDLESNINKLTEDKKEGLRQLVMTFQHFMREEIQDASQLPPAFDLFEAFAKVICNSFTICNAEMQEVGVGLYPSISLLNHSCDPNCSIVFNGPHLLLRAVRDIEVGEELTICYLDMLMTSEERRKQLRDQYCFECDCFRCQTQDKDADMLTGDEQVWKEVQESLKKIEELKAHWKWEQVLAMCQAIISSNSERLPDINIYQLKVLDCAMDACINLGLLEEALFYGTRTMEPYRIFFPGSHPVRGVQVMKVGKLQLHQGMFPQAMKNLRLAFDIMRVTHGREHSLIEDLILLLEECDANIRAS

[12] = target: Receptor tyrosine-protein kinase erbB-2 (Homo sapiens, UniProt P04626); test: Selectivity interaction (KinomeScan (DiscoverX)) EUB0000045b ERBB2
Receptor tyrosine-protein kinase erbB-2, sequence (P04626 whole entry): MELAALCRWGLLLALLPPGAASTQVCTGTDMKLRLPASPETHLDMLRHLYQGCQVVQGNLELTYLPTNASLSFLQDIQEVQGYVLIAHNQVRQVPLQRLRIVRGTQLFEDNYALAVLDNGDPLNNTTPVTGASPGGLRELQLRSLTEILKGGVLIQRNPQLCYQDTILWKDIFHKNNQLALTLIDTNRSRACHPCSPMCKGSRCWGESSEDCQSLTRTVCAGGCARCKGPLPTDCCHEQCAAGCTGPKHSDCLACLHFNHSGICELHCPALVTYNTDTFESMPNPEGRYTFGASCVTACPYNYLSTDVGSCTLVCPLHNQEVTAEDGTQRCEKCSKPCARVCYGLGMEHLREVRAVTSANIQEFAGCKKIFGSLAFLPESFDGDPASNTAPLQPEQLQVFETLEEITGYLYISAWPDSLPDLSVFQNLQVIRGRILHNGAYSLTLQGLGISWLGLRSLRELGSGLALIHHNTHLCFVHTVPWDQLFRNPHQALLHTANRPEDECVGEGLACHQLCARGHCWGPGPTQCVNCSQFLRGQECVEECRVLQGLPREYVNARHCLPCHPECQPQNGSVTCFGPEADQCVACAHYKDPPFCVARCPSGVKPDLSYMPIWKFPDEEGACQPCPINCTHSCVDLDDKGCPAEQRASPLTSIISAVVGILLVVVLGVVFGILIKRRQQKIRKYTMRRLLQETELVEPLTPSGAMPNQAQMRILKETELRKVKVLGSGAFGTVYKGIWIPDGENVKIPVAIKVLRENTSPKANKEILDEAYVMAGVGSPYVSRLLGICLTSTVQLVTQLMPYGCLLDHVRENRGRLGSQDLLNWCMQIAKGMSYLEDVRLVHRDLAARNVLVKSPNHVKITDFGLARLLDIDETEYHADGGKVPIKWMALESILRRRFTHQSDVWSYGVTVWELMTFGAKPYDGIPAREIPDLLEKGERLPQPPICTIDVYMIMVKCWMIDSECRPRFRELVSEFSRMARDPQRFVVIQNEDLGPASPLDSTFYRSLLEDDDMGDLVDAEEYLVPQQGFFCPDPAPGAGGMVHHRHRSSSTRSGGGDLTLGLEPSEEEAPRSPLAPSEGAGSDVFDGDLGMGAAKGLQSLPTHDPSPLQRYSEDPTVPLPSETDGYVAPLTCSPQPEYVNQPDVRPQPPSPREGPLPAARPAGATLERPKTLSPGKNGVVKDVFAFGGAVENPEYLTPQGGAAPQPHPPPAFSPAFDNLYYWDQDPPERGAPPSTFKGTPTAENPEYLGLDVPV

[13] = target: Mitogen-activated protein kinase 14 (Homo sapiens, UniProt Q16539); test: Selectivity interaction (Enzyme panel (AstraZeneca, AlphaScreen, functional assay)) EUB0000621a MAPK14
Mitogen-activated protein kinase 14, sequence (Q16539 whole entry): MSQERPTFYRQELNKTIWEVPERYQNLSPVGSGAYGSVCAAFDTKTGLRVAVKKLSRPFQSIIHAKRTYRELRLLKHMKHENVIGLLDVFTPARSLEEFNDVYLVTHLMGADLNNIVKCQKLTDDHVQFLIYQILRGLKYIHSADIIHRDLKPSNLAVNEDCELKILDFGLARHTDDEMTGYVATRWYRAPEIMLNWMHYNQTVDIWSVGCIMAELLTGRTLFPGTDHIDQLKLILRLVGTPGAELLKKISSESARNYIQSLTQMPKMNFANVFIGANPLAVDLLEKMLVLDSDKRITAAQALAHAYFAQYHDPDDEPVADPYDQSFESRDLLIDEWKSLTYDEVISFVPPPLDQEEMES

[14] = target: T3, Serine/threonine-protein kinase TBK1 (Homo sapiens) (UniProt Q9UHD2); conditions: at 10 µM
T3 sequence (whole entry): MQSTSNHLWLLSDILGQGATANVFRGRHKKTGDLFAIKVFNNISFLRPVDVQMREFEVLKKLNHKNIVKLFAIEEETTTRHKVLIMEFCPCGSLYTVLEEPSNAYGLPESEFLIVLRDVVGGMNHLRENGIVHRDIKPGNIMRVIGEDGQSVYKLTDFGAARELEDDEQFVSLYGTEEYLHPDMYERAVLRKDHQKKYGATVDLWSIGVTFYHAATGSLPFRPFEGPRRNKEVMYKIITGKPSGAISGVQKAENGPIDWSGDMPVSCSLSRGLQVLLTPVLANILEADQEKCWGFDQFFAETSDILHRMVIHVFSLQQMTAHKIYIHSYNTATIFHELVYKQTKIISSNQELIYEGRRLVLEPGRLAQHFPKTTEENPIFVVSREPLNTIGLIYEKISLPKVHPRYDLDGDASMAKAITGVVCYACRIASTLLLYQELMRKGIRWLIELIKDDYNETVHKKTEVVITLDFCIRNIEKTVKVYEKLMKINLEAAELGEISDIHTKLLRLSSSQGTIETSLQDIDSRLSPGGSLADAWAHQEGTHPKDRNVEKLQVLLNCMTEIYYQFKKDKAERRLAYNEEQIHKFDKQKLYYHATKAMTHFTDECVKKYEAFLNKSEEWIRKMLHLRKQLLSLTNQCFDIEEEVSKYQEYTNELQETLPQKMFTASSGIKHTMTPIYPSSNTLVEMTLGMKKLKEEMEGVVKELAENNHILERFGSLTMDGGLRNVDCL

[15] = target: Sodium-dependent serotonin transporter (Homo sapiens, UniProt P31645); test: Selectivity interaction (Panel of kinases, GPCRs, ion channels and transporters (enzymatic assay)) EUB0000266bCl SLC6A4
[16] = target: Cyclin-dependent kinase 9 (Homo sapiens, UniProt P50750); test: Selectivity interaction (KinomeScan (DiscoverX)) EUB0000607a CDK9; conditions: at 10 µM
Cyclin-dependent kinase 9, sequence (P50750 whole entry): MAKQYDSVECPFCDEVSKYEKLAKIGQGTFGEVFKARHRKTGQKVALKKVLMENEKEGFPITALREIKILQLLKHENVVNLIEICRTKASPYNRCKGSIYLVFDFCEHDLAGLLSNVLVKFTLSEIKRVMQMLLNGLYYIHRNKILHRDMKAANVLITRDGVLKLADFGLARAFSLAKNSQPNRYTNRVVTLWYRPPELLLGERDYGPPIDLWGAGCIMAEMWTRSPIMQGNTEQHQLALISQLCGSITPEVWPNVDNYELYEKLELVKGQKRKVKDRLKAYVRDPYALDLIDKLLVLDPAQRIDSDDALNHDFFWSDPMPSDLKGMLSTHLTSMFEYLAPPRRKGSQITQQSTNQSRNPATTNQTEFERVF

[17] = target: Serine/threonine-protein kinase MRCK alpha (Homo sapiens) (UniProt Q5VT25); test: Selectivity interaction (KinomeScan (DiscoverX)) EUB0000607a CDC42BPA; conditions: at 10 µM
Serine/threonine-protein kinase MRCK alpha (Homo sapiens), sequence (Q5VT25 whole entry, canonical isoform): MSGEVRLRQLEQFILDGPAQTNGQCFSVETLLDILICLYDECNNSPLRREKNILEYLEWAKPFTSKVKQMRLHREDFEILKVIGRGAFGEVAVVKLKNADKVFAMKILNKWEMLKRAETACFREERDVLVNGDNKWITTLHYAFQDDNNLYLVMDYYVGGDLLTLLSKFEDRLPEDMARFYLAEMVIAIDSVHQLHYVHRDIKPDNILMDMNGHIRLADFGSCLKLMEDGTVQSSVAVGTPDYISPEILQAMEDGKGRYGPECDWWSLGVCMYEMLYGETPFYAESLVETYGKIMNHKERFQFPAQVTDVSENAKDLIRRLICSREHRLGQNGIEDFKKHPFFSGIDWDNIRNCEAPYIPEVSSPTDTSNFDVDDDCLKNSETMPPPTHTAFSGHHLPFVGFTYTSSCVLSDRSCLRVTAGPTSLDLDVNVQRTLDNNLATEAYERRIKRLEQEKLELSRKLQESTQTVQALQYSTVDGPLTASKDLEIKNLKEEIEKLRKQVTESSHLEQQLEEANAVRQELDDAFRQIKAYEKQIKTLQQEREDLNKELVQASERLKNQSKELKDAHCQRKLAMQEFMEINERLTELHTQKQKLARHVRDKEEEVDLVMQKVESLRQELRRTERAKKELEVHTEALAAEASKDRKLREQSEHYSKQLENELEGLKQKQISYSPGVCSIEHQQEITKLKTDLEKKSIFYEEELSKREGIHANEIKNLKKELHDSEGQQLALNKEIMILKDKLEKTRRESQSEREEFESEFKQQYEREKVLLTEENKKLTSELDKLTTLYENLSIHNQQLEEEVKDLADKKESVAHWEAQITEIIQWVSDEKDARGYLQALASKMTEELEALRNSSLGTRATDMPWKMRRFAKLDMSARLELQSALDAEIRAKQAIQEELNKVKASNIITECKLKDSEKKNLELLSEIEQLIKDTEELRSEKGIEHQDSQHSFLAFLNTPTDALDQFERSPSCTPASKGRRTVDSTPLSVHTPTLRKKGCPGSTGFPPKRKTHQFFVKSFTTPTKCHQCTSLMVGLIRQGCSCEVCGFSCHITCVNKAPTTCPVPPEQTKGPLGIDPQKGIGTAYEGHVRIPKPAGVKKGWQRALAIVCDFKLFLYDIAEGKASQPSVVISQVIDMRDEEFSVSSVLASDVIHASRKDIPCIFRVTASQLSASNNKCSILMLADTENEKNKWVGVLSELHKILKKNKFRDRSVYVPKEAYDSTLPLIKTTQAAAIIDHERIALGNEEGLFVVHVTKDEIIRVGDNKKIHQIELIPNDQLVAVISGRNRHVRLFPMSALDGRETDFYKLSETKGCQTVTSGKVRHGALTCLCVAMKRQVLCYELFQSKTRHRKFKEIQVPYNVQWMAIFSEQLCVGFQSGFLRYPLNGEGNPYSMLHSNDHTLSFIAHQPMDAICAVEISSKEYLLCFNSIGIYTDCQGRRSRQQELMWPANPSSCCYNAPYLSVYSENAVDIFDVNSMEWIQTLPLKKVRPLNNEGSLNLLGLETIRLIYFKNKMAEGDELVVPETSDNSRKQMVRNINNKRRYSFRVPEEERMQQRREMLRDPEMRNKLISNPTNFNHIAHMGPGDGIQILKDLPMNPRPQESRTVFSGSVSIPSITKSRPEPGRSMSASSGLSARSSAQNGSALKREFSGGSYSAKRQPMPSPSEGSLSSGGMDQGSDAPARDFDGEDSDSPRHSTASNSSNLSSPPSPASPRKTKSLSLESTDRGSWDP

[18] = target: Casein kinase I isoform gamma-2 (Homo sapiens) (UniProt P78368); test: Selectivity interaction (Kinase panel (Z-LYTE Assay)) EUB0001632a CSNK1G2; conditions: at 10 µM
[19] = target: Histamine H1 receptor (Homo sapiens, UniProt P35367); test: Selectivity interaction (Panel of non-epigenetic targets (kinases, GPCRs, ion channels, and transporters, Eurofins) ) EUB0000271b HRH1; conditions: at 1 µM

In the case of COc1cc(Nc2nc(C)cc(-c3cnn4nc(OC)ccc34)n2)cc(C(F)(F)F)c1, the % of control [1] is reported as 94% and the % of control [2] is reported as 100%.

CN1Cc2nccc(-c3cn(C)nc3-c3ccc(F)cc3)c2C1=O gave a % of inhibition [3] of 1%.

Work on COc1cc(N(C)c2ccnc3ccc(C(F)(F)F)cc23)cc(OC)c1OC yielded a % binding [4] of 93%.

For Nc1cnc(N2CCc3cc(S(=O)(=O)Nc4c(F)cc(Cl)cc4F)cc(N4CCCC4=O)c32)nc1 [TP-020n], the % of inhibition [5] was 9.24%.

CN(C)CC#Cc1ccc2[nH]c3c(c2c1)-c1nc(N)ncc1CCC3 gave an IC50 [6] of 0.066 µM.

Work on COCC(=O)NC/C=C/c1ccc2ncnc(Nc3ccc(Oc4ccc(C)nc4)c(C)c3)c2c1 [CP-724714] yielded a % of control [7] of 100%.

With CCC(=O)N1CCN(c2ccc(-n3c(=O)ccc4cnc5ccc(-c6cnc7ccccc7c6)cc5c43)cc2C(F)(F)F)CC1 the % of control [8] was 59%.

With CN(C)C/C=C/C(=O)Nc1ccc(C(=O)N2CCCC(Nc3ncc(Cl)c(-c4c[nH]c5ccccc45)n3)C2)cc1 (stereo unspecified) the % of control [9] was 93% and the % of control [10] was 100%.

In the case of COCCN1CCC(c2cc(CN(C)C(=O)c3cccc(Oc4ccccc4)c3)ccn2)CC1, the % activity ([11]; at 1 µM) is reported as > 95% and the % activity ([11]; at 10 µM) is reported as 83%.

For C=CC(=O)Nc1cc(-n2c(=O)ccc3cnc4ccc(-c5ccc(NS(C)(=O)=O)cc5)cc4c32)ccc1C, the % of control ([12]; at 1 µM) was 90% and the % of control ([12]; at 10 µM) was 26%.

In the case of Cc1cc([C@@H](C)Nc2ccccc2C(=O)O)c2nc(N3CCOCC3)cc(=O)n2c1 [AZD-6482], the IC50 [13] is reported as > 671 µM and the % of control [14] is reported as 100%.

Compound CCn1c(-c2nc3cc(C(=O)N4CCCC(N)C4)ccc3n2C)cc2ccccc21 (stereo unspecified) has a pXC50 [15] of 4.7 M.

CNC(=O)Nc1ccc(-c2nc(N3CC4CCC(C3)O4)c3cnn(C4CCC5(CC4)OCCO5)c3n2)cc1 gave a % of control [16] of 100% and a % of control [17] of 100%.

For Cn1cc(-n2cnc3c(NCc4nc5cc(Cl)c(Cl)cc5[nH]4)nc(N4CCOCC4)nc32)cn1, the % of control [18] was 13.1%.

Compound Cc1cc(C)cc([C@@H]2c3cc(C)ccc3NC(=O)CN2C(=O)c2ccc(Br)s2)c1 has a % of inhibition [19] of 0%.

From ChEMBL document CHEMBL5465560, “Selectivity Literature for EUbOPEN Chemogenomic Library” (2024)
